Numbered stars: 1 amine (or outer) side, 2 acyl side, 3 side chain; on linkers, the order of the positions; unused ones are H or OH. Bridge positions count the residues as written; N and C are the ends. Square brackets hold non-standard residues; d marks the D form. Peptide text beside a SMILES is read from it. Phe(4-(2-MeO-Ph)) = COc1ccccc1-c1ccc(C[C@H](N)C(=O)O)cc1; Phe(4-CF3) = N[C@@H](Cc1ccc(C(F)(F)F)cc1)C(=O)O; dPhe(3,4-F2) = N[C@H](Cc1ccc(F)c(F)c1)C(=O)O; Bip = N[C@@H](Cc1ccc(-c2ccccc2)cc1)C(=O)O; dPhe(2-CN) = N#Cc1ccccc1C[C@@H](N)C(=O)O; Phe(4-NH2) = Nc1ccc(C[C@H](N)C(=O)O)cc1; dPhe(4-F) = N[C@H](Cc1ccc(F)cc1)C(=O)O; 2Nal = N[C@@H](Cc1ccc2ccccc2c1)C(=O)O; d(hPhe) = N[C@H](CCc1ccccc1)C(=O)O; d4Pal = N[C@H](Cc1ccncc1)C(=O)O; Suc = O=C(CCC(=O)[*:2])[*:1] A value given as a limit tells only on which side of the number the result lay.

One experiment deals with T1, TNFα / TNFα receptor (TNFα R1/Fc) (Homo sapiens, UniProt P01375).
T1 construct: purchased R&D Systems
T1 sequence (P01375 77-233 limits assumed, species assumed): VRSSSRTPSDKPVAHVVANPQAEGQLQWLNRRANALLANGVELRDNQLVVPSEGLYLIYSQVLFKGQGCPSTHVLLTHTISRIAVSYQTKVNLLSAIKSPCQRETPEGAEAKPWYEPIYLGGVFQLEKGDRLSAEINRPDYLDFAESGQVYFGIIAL
Description: Inhibition of binding of TNFα to the TNFα receptor (plate ELISA competition). To be noted: Activity (IC50, inhibition of TNFα binding to TNFα R1/Fc), Table 2. In outline: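 Compound dilutions were preincubated 30 min at RT with 8.33 nM TNFα R1/Fc in PBST with 2% DMSO, then added to wells coated with 15 nM TNFα for 30 min. Bound receptor was detected with HRP anti-human Fc and TMB, read as A450.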
Background: ELISA stands for enzyme-linked immunosorbent assay.
Molecule `O=C1COc2ccc(cc2)C[C@@H](C(=O)N[C@H](CO)C(=O)O)NC(=O)[C@H](CCc2ccccc2)NC(=O)[C@@H](Cc2ccc(-c3ccccc3)cc2)NC(=O)[C@H](Cc2ccncc2)N1` [Compound 555] yielded an IC50 of less than 10 µM.

The experiment is the same for the next values; noted with them: Table 2; read-out: Activity (IC50, inhibition of TNFα binding to TNFα R1/Fc).
Take `O=C1CCC(=O)N[C@H](Cc2ccncc2)C(=O)N[C@@H](Cc2ccc(-c3ccccc3)cc2)C(=O)N[C@H](Cc2ccccc2)C(=O)N[C@H](C(=O)O)Cc2ccc(cc2)N1` [Compound 127] ([d4Pal][Bip][dF][Phe(4-NH2)]-OH; linker N-4 via Suc): the IC50 is greater than 100 µM.

For `O=C(O)CNC(=O)[C@@H]1Cc2ccc(cc2)OCC(=O)N[C@@H](Cc2ccc(-c3ccccc3)cc2)C(=O)N[C@H](Cc2ccc(-c3ccccc3)cc2)C(=O)N[C@@H](CCc2ccccc2)C(=O)N1` [Compound 570], the IC50 lay in the range of 10 to 30 µM.

With `O=C1COc2ccc(cc2)C[C@H](C(=O)O)NC(=O)[C@H](Cc2ccccc2F)NC(=O)[C@@H](Cc2ccc(-c3ccccc3)cc2)NC(=O)[C@H](Cc2c[nH]c3ccccc23)N1` [Compound 728], the IC50 lay within 10 to 30 µM.

As for `O=C1N[C@H](Cc2ccccc2)C(=O)N[C@@H](C(=O)O)Cc2ccc(cc2)NC(=O)[C@H](O)[C@@H](O)C(=O)N[C@H](Cc2cccs2)C(=O)N[C@H]1Cc1ccc(Br)cc1` [Compound 242], the IC50 was in the range of 30 to 100 µM.

Take `N#Cc1ccccc1C[C@H]1NC(=O)[C@H](Cc2ccc(C(F)(F)F)cc2)NC(=O)[C@@H](CCc2ccccc2)NC(=O)CCC(=O)Nc2ccc(cc2)C[C@@H](C(=O)O)NC1=O` [Compound 225] ([d(hPhe)][Phe(4-CF3)][dPhe(2-CN)][Phe(4-NH2)]-OH; linker N-4 via Suc): the IC50 is greater than 100 µM.

As to `O=C1COc2ccc(cc2)C[C@@H](C(=O)O)NC(=O)[C@H](CCc2ccccc2)NC(=O)[C@@H](Cc2ccc(-c3ccccc3)cc2)NC(=O)[C@H](Cc2ccc(F)cc2)N1` [Compound 679], the IC50 was less than 10 µM.

Take `O=C(O)[C@@H]1Cc2ccc(cc2)NC(=O)[C@H](O)[C@@H](O)C(=O)N[C@@H](Cc2cccs2)C(=O)N[C@H](Cc2ccc(-c3ccccc3)cc2)C(=O)N[C@@H](Cc2ccccc2)C(=O)N1` [Compound 271]: the IC50 was greater than 100 µM.

For `O=C(O)CC[C@H](NC(=O)[C@@H]1Cc2ccc(cc2)OCC(=O)N[C@H](Cc2cccs2)C(=O)N[C@@H](Cc2ccc(-c3ccccc3)cc2)C(=O)N[C@H](CCc2ccccc2)C(=O)N1)C(=O)O` [Compound 308], the IC50 was greater than 100 µM.

`C[C@H](NC(=O)[C@@H]1Cc2ccc(cc2)OCC(=O)N[C@@H](Cc2ccc(-c3ccccc3)cc2)C(=O)N[C@H](Cc2ccc(-c3ccccc3)cc2)C(=O)N[C@@H](CCc2ccccc2)C(=O)N1)C(=O)O` [Compound 572]: the IC50 is less than 10 µM.

For the molecule `O=C1COc2ccc(cc2)C[C@@H](C(=O)O)NC(=O)[C@@H](C/C=C/c2ccccc2)NC(=O)[C@H](Cc2ccc(-c3ccccc3)cc2)NC(=O)[C@@H](Cc2cccs2)N1` [Compound 537], the IC50 was greater than 100 µM.

Take `O=C1CCC(=O)N[C@H](Cc2ccc(F)c(F)c2)C(=O)N[C@@H](Cc2ccc(C(F)(F)F)cc2)C(=O)N[C@H](Cc2ccccc2)C(=O)N[C@H](C(=O)O)Cc2ccc(cc2)N1` [Compound 135] ([dPhe(3,4-F2)][Phe(4-CF3)][dF][Phe(4-NH2)]-OH; linker N-4 via Suc): the IC50 fell in the range of 30 to 100 µM.

On to `O=C1COc2ccc(cc2)C[C@@H](C(=O)O)NC(=O)[C@H](CCc2ccccc2)NC(=O)[C@@H](Cc2ccc(-c3ccncc3)cc2)NC(=O)[C@H](Cc2ccccn2)N1` [Compound 661], for which the IC50 is 30 to 100 µM.

On to `O=C(O)[C@@H]1Cc2ccc(cc2)NC(=O)[C@H](O)[C@@H](O)C(=O)N[C@H](Cc2ccccc2Cl)C(=O)N[C@@H](Cc2ccc(-c3ccccc3)cc2)C(=O)N[C@H](Cc2ccccc2)C(=O)N1` [Compound 315], for which the IC50 lay in the range of 10 to 30 µM.

`O=C1CCC(=O)N[C@H](CCc2ccccc2)C(=O)N[C@@H](Cc2ccc(C(F)(F)F)cc2)C(=O)N[C@H](Cc2ccccc2)C(=O)N[C@H](C(=O)O)Cc2ccc(cc2)N1` [Compound 2] ([d(hPhe)][Phe(4-CF3)][dF][Phe(4-NH2)]-OH; linker N-4 via Suc): the IC50 is greater than 100 µM.

With `COc1ccccc1-c1ccc(C[C@@H]2NC(=O)[C@@H](CCc3ccccc3)NC(=O)CCC(=O)Nc3ccc(cc3)C[C@@H](C(=O)O)NC(=O)[C@@H](Cc3ccccc3)NC2=O)cc1` [Compound 167] ([d(hPhe)][Phe(4-(2-MeO-Ph))][dF][Phe(4-NH2)]-OH; linker N-4 via Suc), the IC50 was greater than 100 µM.

As to `O=C1COc2ccc(cc2)C[C@@H](C(=O)N[C@H](CCc2ccccc2)C(=O)O)NC(=O)[C@H](Cc2ccccc2F)NC(=O)[C@@H](Cc2ccc(-c3ccccc3)cc2)NC(=O)[C@H](Cc2c[nH]c3ccccc23)N1` [Compound 741], the IC50 is less than 10 µM.

Regarding `O=C1N[C@@H](C(=O)O)Cc2ccc(cc2)NC(=O)[C@H](O)[C@@H](O)C(=O)N[C@@H](Cc2cccs2)C(=O)N[C@H](Cc2ccc(-c3ccccc3)cc2)C(=O)N[C@H]1Cc1ccccc1` [Compound 278], the IC50 was greater than 100 µM.

On to `COc1ccc(C[C@H]2NC(=O)COc3ccc(cc3)C[C@@H](C(=O)O)NC(=O)[C@@H](CCc3ccccc3)NC(=O)[C@H](Cc3ccc(-c4ccccc4)cc3)NC2=O)cc1` [Compound 522], for which the IC50 is greater than 100 µM.

In the case of `O=C(O)[C@H](Cc1ccccc1)NC(=O)[C@@H]1Cc2ccc(cc2)NC(=O)[C@H](O)[C@@H](O)C(=O)N[C@@H](Cc2cccs2)C(=O)N[C@H](Cc2ccc(-c3ccccc3)cc2)C(=O)N[C@@H](Cc2ccccc2)C(=O)N1` [Compound 435], the IC50 is less than 10 µM.

For `O=C(O)[C@H](Cc1ccccc1)NC(=O)[C@H]1Cc2ccc(cc2)NC(=O)[C@H](O)[C@@H](O)C(=O)N[C@@H](Cc2cccs2)C(=O)N[C@H](Cc2ccc(Br)cc2)C(=O)N[C@@H](Cc2ccccc2)C(=O)N1` [Compound 438], the IC50 was less than 10 µM.

Take `O=C1CCC(=O)N[C@H](CCc2ccccc2)C(=O)N[C@@H](Cc2ccc3ccccc3c2)C(=O)N[C@H](Cc2ccccc2)C(=O)N[C@H](C(=O)O)Cc2ccc(cc2)N1` [Compound 109] ([d(hPhe)][2Nal][dF][Phe(4-NH2)]-OH; linker N-4 via Suc): the IC50 is 10 to 30 µM.

Consider `O=C1CCC(=O)N[C@H](Cc2ccc(F)cc2)C(=O)N[C@@H](Cc2ccc(C(F)(F)F)cc2)C(=O)N[C@H](Cc2ccccc2)C(=O)N[C@H](C(=O)O)Cc2ccc(cc2)N1` [Compound 134] ([dPhe(4-F)][Phe(4-CF3)][dF][Phe(4-NH2)]-OH; linker N-4 via Suc), for which the IC50 is greater than 100 µM.

In the case of `O=C1CCC(=O)NN(Cc2ccccc2)C(=O)N[C@@H](Cc2ccc(-c3ccccc3)cc2)C(=O)N[C@H](Cc2ccccc2)C(=O)N[C@H](C(=O)O)Cc2ccc(cc2)N1` [Compound 119], the IC50 fell in the range of 30 to 100 µM.

On to `O=C1COc2ccc(cc2)C[C@@H](C(=O)O)NC(=O)[C@H](Cc2ccc(-c3cccnc3)cc2)NC(=O)[C@@H](Cc2ccc(-c3ccccc3)cc2)NC(=O)[C@H](Cc2ccncc2)N1` [Compound 644], for which the IC50 was less than 10 µM.

With `O=C1COc2ccc(cc2)C[C@@H](C(=O)N[C@@H](Cc2ccc(O)cc2)C(=O)O)NC(=O)[C@H](CCc2ccccc2)NC(=O)[C@@H](Cc2ccc(-c3ccccc3)cc2)NC(=O)[C@H](Cc2ccc(-c3ccncc3)cc2)N1` [Compound 585], the IC50 was less than 10 µM.

In the case of `O=C1N[C@H](Cc2ccccc2)C(=O)N[C@@H](C(=O)O)Cc2ccc(cc2)NC(=O)[C@H](O)[C@@H](O)C(=O)N[C@H](Cc2cccs2)C(=O)N[C@H]1Cc1ccc(Cl)cc1Cl` [Compound 244], the IC50 lay in the range of 30 to 100 µM.

The values above are taken from patent publication US8338565B2, “Macrocyclic compounds for inhibition of tumor necrosis factor alpha” (Ensemble Therapeutics Corporation, priority 2008, dated 2012).
